Measurements from EP1053749A1, “PREVENTIVES AND REMEDIES FOR NEURON DIGENERATION-ASSOCIATED DISEASEAS” (priority 1998, dated 1999).

Tests used:
cerebellar granule cells [1] = assay: NO donor-induced apoptosis, morphological studies; assay type: cell-based, rat; details: 25 µmol/L; 24-hour exposure to GSNO or SNP (100-250 µmol/L)
cerebellar granule cells [2] = assay: lipid peroxidation (TBA assay) after exposure to peroxynitrite; assay type: cell-based, rat
[3] = unpublished data, contributed to Free Radic. Biol. Med.; cited from earlier work
cerebellar granule cells [4] = assay: peroxynitrite-induced cell death (trypan blue exclusion and MTT assay), Pharmacological Test 1; assay type: cell-based, rat; details: 30-min exposure to 5-10 µmol/L peroxynitrite, assessed after 24-hr culture, Figure 5
cerebellar granule cells [5] = assay: cellular ATP content by HPLC after exposure to peroxynitrite; assay type: cell-based, rat; details: pretreatment; exposure to peroxynitrite for 30 min, Figure 9
cerebellar granule cells [6] = assay: peroxynitrite-induced apoptosis, morphological studies, Pharmacological Test 2; assay type: cell-based, rat; details: for protection from apoptotic death: 100 µM, 30-min exposure to 10 µM peroxynitrite
cerebellar granule cells [7] = assay: lipid peroxidation (TBA assay) after exposure to NO donors; assay type: cell-based, rat; details: 24-hr treatment with GSNO or SNP, Figure 4
cerebellar granule cells [8] = assay: cell viability by trypan blue exclusion after exposure to NO donors; assay type: cell-based, rat; details: exposure to NO donors (100 µmol/L SNP or GSNO), Figure 2
acute toxicity (LD50) = details: rat, in vivo
cerebellar granule cells [9] = assay: MTT assay (mitochondrial activity) after exposure to GSNO; assay type: cell-based, rat; details: Figure 3
neuronal membrane = details: oxidative stress-induced alteration; unpublished data, contributed to Free Radic. Biol. Med.; cited from earlier work
cerebellar granule cells [10] = assay: cell viability by MTT assay after exposure to peroxynitrite; assay type: cell-based, rat; details: concentration not given, Figure 6
cerebellar granule cells [11] = assay: cell membrane fluidity by ESR spin labeling after exposure to peroxynitrite; assay type: cell-based, rat; details: Figure 8
cerebellar granule cells [12] = assay: DNA fragmentation after exposure to peroxynitrite; assay type: cell-based, rat; details: peroxynitrite-treated cells
cerebellar granule cells [13] = assay: DNA fragmentation analysis after exposure to NO donors; assay type: cell-based, rat; details: pre-treatment of NO-treated cells

SMILES: Cc1c(C)c2c(c(C)c1OP(=O)(O)OC1=C(O)[C@@H]([C@@H](O)CO)OC1=O)CCC(C)(CCCC(C)CCCC(C)CCCC(C)C)O2.O=P(O)(O)O (mixture of isomers) [EPC-K1, L-ascorbic acid 2-[3,4-dihydro-2,5,7,8-tetramethyl-2-(4,8,12-trimethyltridecyl)-2H-1-benzopyran-6-yl-hydrogen phosphate] phosphate salt]
- protection from apoptotic cell death (cerebellar granule cells [1]): protected the cells from death
- formation of TBARS (lipid peroxidation) (cerebellar granule cells [2]; 50 µM, Figure 7): markedly suppressed
- solubility in water (solubility in water): soluble in water
- scavenging of peroxynitrite [3]: effective scavenger of peroxynitrite
- peroxynitrite induced cell death (cerebellar granule cells [4]): effectively prevented cell death
- cellular ATP content (cerebellar granule cells [5]): suppressed the decrease of ATP
- protection from apoptotic death (cerebellar granule cells [6]): protected from death
- protective action against ONOO^--induced apoptosis (comparison) (cerebellar granule cells [6]; overall comparison in Pharmacological Test 2): more effective than vitamin C or Trolox
- lipid peroxidation (formation of TBARS) (cerebellar granule cells [7]): effectively inhibited lipid peroxidation
- cell viability (trypan blue exclusion) (cerebellar granule cells [8]): effectively protected the cells from death
- LD50 (acute toxicity (LD50); iv): > 100 mg/kg
- LD50 (acute toxicity (LD50); po): > 5000 mg/kg
- protection of ability of cells to reduce MTT (mitochondrial enzymes) (cerebellar granule cells [9]; 8-hr exposure to 100 µmol/L GSNO): exhibited no dear protective effects
- further dysfunction of mitochondrial enzymes (MTT) (cerebellar granule cells [9]; after exposure to 100 µmol/L GSNO): prevented mitochondrial enzymes from falling into further dysfunction
- neuronal membrane fluidity (neuronal membrane): protects neuronal membrane fluidity from oxidative stress-induced alteration
- cell viability (MTT assay) (cerebellar granule cells [10]): effectively protected the cells from death
- cell membrane fluidity (order parameter) (cerebellar granule cells [11]; 50 µM): prevented the change in cell membrane fluidity
- DNA fragmentation (ladder pattern) (cerebellar granule cells [12]; 50 µM): effectively prevented DNA from fragmentation
- DNA fragmentation (ladder pattern) (cerebellar granule cells [13]): prevented DNA from fragmentation

SMILES: Cc1c(C)c2c(c(C)c1O)CCC(C)(C(=O)O)O2 (stereo not shown) [Trolox, 6-Hydroxy-2,5,7,8-tetramethylchroman-2-carboxylic acid]
- formation of TBARS (lipid peroxidation) (cerebellar granule cells [2]; 100 µM): markedly inhibited the formation of TBARS
- cellular ATP content (cerebellar granule cells [5]): suppressed the decrease of ATP
- protection from apoptotic death (cerebellar granule cells [6]): protected from death
- cell membrane fluidity (order parameter) (cerebellar granule cells [11]; 100 µM): did not show significant protective effect
- DNA fragmentation (ladder pattern) (cerebellar granule cells [12]; 100 µM): exhibited protective effects

SMILES: O=C1O[C@H]([C@@H](O)CO)C(O)=C1O [vitamin C]
- formation of TBARS (lipid peroxidation) (cerebellar granule cells [2]; 100 µM): markedly inhibited the formation of TBARS
- cellular ATP content (cerebellar granule cells [5]): suppressed the decrease of ATP
- protection from apoptotic death (cerebellar granule cells [6]): protected from death
- DNA fragmentation (ladder pattern) (cerebellar granule cells [12]; 100 µM): exhibited protective effects
